Data: patent US6770650B2, “Cyclic amine derivatives-CCR-3 receptor antagonists” (Syntex (U.S.A.) LLC, priority 1997, dated 2004)
pIC50: −log10 of the molar value. Counter-ions that a name gives are not always drawn.

Columns and labels:
[1] = biological target: T1, CCR-3 receptor (Homo sapiens, UniProt P51677); experiment: CCR-3 Receptor Binding Assay, inhibition of 125I eotaxin binding to CCR-3 L1.2 transfectant cells; conditions: concentration required to reduce 125I-eotaxin binding to the CCR-3 L1.2 transfected cells by 50%
T1 construct: expressed in transfected cells; host or cells: L1.2 cells (murine pre-B lymphoma line)
T1 sequence (P51677 1-355): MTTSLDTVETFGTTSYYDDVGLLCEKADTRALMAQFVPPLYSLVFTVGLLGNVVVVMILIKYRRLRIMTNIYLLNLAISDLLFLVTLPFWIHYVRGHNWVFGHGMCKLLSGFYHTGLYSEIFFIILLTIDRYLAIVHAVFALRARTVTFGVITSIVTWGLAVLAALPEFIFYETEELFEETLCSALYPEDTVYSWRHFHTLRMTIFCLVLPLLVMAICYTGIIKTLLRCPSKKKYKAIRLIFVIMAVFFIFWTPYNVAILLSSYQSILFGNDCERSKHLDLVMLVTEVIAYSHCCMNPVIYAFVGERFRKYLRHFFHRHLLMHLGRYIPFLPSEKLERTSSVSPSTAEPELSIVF
Protocol: The CCR-3 antagonistic activity of the compounds of the invention was determined by their ability to inhibit the binding of ^125I eotaxin to CCR-3 L1.2 transfectant cells ((see Ponath, P. D. et al., J. Exp. Med., Vol. 183, 2437-2448, (1996)).
The assay was performed in Costar 96-well polypropylene round bottom plates. Test compounds were dissolved in DMSO and then diluted with binding buffer (50 mM HEPES, 1 mM CaCl2, 5 mM MgCl2, 0.5% bovine serum albumin (BSA), 0.02% sodium azide, pH 7.24) such that the final DMSO concentration was 2%. 25 μl of the test solution or only buffer with DMSO (control samples) was added to each well, followed by the addition of 25 μl of ^125I-eotaxin ([…]) (NEX314, New England Nuclear, Boston, Mass.) and 1.5×10^5 of the CCR-3 L1.2 transfected cells in 25 μl binding buffer. The final reaction volume was 75 μl.
After incubating the reaction mixture for 1 h at room temperature, the reaction was terminated by filtering the reaction mixture through polyethylenimine treated Packard Unifilter GF/C filter plate (Packard, Chicago, Ill.). The filters were washed four times with ice cold wash buffer containing 10 mm HEPES and 0.5M sodium chloride (pH 7.2) and dried at 65° C. for approximately 10 min. 25 μl/well of Microscint-20™ scintillation fluid (Packard) was added and the radioactivity retained on the filters was determined by using the Packard TopCount™.
The IC50 value (concentration of test compound required to reduce ^125I-eotaxin binding to the CCR-3 L1.2 transfected cells by 50%) for some of the compounds of the invention was: […]

[2] = tested on: CCR-3 L1.2 transfectant cells; experiment: Inhibition of eotaxin mediated chemotaxis of CCR-3 L1.2 transfectant cells; type: cell-based; conditions: concentration required to reduce eotaxin mediated chemotaxis of CCR-3 L1.2 transfected cells by 50%
Protocol: The CCR-3 antagonistic activity of the compounds of this invention was determined by measuring the inhibition of eotaxin mediated chemotaxis of the CCR-3 L1.2 transfectant cells, using a slight modification of the method described in Ponath, P. D. et al., J. Clin. Invest. 97: 604-612 (1996). The assay was performed in a 24-well chemotaxis plate (Costar Corp., Cambridge Mass.) CCR-3 L1.2 transfectant cells were grown in culture medium containing RPMI 1640, 10% Hyclone™ fetal calf serum, […] 2-mercaptoethanol and Geneticin 418 (0.8 mg/ml). 18-24 hours before the assay, the transfected cells were treated with n-butyric acid at a final concentration of 5 mM/1×10^6 cells/ml, isolated and resuspended at 1×10^7 cells/ml in assay medium containing equal parts of RPMI 1640 and Medium 199 (M 199) with 0.5% bovine serum albumin.
Human eotaxin suspended in phosphate buffered saline at 1 mg/ml was added to bottom chamber in a final concentration of 100 nm. Transwell culture inserts (Costar Corp., Cambridge Mass.) having 3 micron pore size were inserted into each well and L1.2 cells (1×10^6) were added to the top chamber in a final volume of 100 μl. Test compounds in DMSO were added both to the top and bottom chambers such that the final DMSO volume was 0.5%. The assay was performed against two sets of controls. The positive control contained cells with no test compound in the top chamber and only eotaxin in the lower chamber. The negative control contained cells with no test compound in the top chamber and neither eotaxin nor test compound in lower chamber. The plate was incubated at 37° C. After 4 h, the inserts were removed from the chambers and the cells that had migrated to the bottom chamber were counted by pipetting out 500 μl of the cell suspension from the lower chamber to 1.2 ml Cluster tubes (Costar) and counting them on a FACS for 30 sec.
The IC50 value (concentration of test compound required to reduce eotaxin mediated chemotaxis of CCR-3 L1.2 transfected cells by 50%) for some of the compounds of the invention was: […]

| SMILES | melting point [°C] | pIC50 [1] | pIC50 [2] |
| --- | --- | --- | --- |
| Cc1ccc(C(=O)N[C@H](CN2CCC(Cc3ccc(Cl)c(Cl)c3)CC2)C(C)C)cc1 (as salt: HCl) [compound 57, N-{1-(S)-[4-(3,4-Dichlorobenzyl)piperidin-1-ylmethyl]-2-methylpropyl}-4-methylbenzamide] | 87 to 90 |  |  |
| Cc1ccc(C(=O)N[C@H](CN2CCC(Cc3ccc(Cl)c(Cl)c3)CC2)C(C)C)s1 (as salt: HCl) [compound 71, N-{1-(R)-[4-(Dichlorobenzyl)piperidin-1-ylmethyl]-2-methylpropyl}-5-methylthiophene-2-carboxamide Hydrochloride Salt] | 45 to 47.5 |  |  |
| Cc1ccc(C(=O)N2CCC[C@@H]2CN2CCN(Cc3ccc(Cl)c(Cl)c3)CC2)cc1 (as salt: HCl) [compound 78, {1-(4-Methylbenzoyl)-2(R)-[4-(3,4-dichlorobenzyl)piperazin-1-ylmethyl]}pyrrolidine Dihydrochloride Salt] | 249.6 to 250.1 |  |  |
| COc1cccc(NC(=O)N[C@H](CN2CCN(Cc3ccc(Cl)c(Cl)c3)CC2)C(C)C)c1 (as salt: HCl) [compound 98, 1-{1(S)-[4-(3,4-Dichlorobenzyl)piperazin-1-ylmethyl]-2-methylpropyl}-3-(3-methoxyphenyl)urea] | 97.5 to 99.5 |  |  |
| Cc1ccc(NC(=O)N[C@H](CN2CCC(Cc3ccc(Cl)c(Cl)c3)CC2)C(C)(C)C)cc1 (as salt: HCl) [compound 100] | 109.5 to 111 |  |  |
| Cc1ccc(C(=O)NC(CC2CCN(Cc3ccc(Cl)c(Cl)c3)CC2)C(C)C)cc1 (racemic) (as salt: hydrochloride) [compound 133] | 233.9 to 235.5 |  |  |
| CC(C)C(CN1CCN(Cc2ccc(Cl)c(Cl)c2)CC1)NC(=O)c1ccccn1.Cl.Cl (racemic) [compound 7, N-{1(RS)-[4-(3,4-Dichlorobenzyl)piperazin-1-ylmethyl]-2-methylpropyl}picolinamide dihydrochloride salt] | 226.2 to 229.9 | 6.38 |  |
| COc1cc(N)c(Cl)cc1C(=O)NCC1CCN(CC(NC(=O)c2ccc(C)cc2)C(C)C)CC1 (racemic) [compound 59, N-{1-(RS)-[4-(4-Amino-5-chloro-2-methoxyphenylcarbonylaminomethyl)piperidin-1-yl-methyl]-2-methylpropyl}-4-methylbenzamide] |  | 6.02 | 6.68 |
| COc1cccc(NC(=O)NC2CCCCC2N2CCN(Cc3ccc(Cl)c(Cl)c3)CC2)c1 (racemic) [compound 84, 1-{2(RS)-[4-(3,4-Dichlorobenzyl)piperazin-1-yl]cyclohexyl}-3-(3-methoxyphenyl)urea] |  | 6.16 | 6.34 |
| COc1cccc(NC(=O)NC(C(C)C)C2CCN(Cc3ccc(Cl)c(Cl)c3)CC2)c1 (racemic) [compound 132, 1-{1(RS)-[1-(3,4-Dichlorobenzyl)piperidin-4-yl]-2-methylpropyl}-3-(3-methoxyphenyl)urea] | 161.4 to 161.8 |  |  |
| O=C(N[C@@H](CN1CCN(Cc2ccc(Cl)c(Cl)c2)CC1)C1CCCCC1)c1ccc(Cl)cc1 [compound 35, N-{1(R)-cyclohexyl-2-[4-(3,4-dichlorobenzyl)piperazin-1-yl]ethyl}-4-chloro-benzamide] | 149 to 155 |  |  |
| Cc1ccc(C(=O)N[C@H](CN2CCC(Cc3ccc(Cl)c(Cl)c3)CC2)C(C)C)cc1 [compound 57, N-{1-(S)-[4-(3,4-Dichlorobenzyl)piperidin-1-ylmethyl]-2-methylpropyl}-4-methylbenzamide] |  |  | 6.62 |
| CC(C)(C)[C@@H](CN1CCC(Cc2ccc(Cl)c(Cl)c2)CC1)NC(=O)c1ccc(Cl)cc1 [compound 61] | 63 to 68 | 5.75 |  |
| Cc1cc(C)c(NC(=O)N[C@@H](CN2CCN(Cc3ccc(Cl)c(Cl)c3)CC2)C(C)C)c(C)c1 [compound 93] | 271.1 to 275.5 | 5.47 | 7.22 |
| COc1cccc(NC(=O)N[C@H](CN2CCC(Cc3ccc(Cl)c(Cl)c3)CC2)C(C)(C)C)c1 [compound 99] | 75.1 to 80.3 | 5.63 |  |
